This is an account of results in ChEMBL document CHEMBL1121517, “Estrogen receptor based imaging agents. 1. Synthesis and receptor binding affinity of some aromatic and D-ring halogenated estrogens” (J Med Chem, 1980).

SMILES strings stand for the structures.

For this experiment, the target named is Estrogen receptor (Ovis aries) (UniProt P49885+Q9TU15).
Compound `CC[C@H](c1ccc(O)cc1)[C@@H](CC)c1ccc(O)cc1` returned an RAC of 300.
For `COc1ccc2c(c1)CC[C@@H]1[C@@H]2CC[C@]2(C)C(=O)[C@H](Cl)C[C@@H]12`, the RAC is 0.48.
`CCC(c1ccc(O)cc1)C(CC)c1ccc(O)c(Br)c1` (stereo not drawn) registered an RAC of 16.
With `CCC(c1ccc(O)cc1)C(CC)c1ccc(O)c(I)c1` (stereo not drawn), the RAC amounted to 14.
Consider `CCC(c1ccc(O)c(I)c1)C(CC)c1cc(I)c(O)c(I)c1` (stereo not drawn), for which the RAC was determined as 0.14.
As for `C[C@]12CC[C@@H]3c4ccc(O)cc4CC[C@H]3[C@@H]1C[C@H](Br)[C@@H]2O`, the figure is 4.7.
`COc1ccc2c(c1)CC[C@@H]1[C@@H]2CC[C@]2(C)C(=O)[C@@H](Br)C[C@@H]12` registered an RAC of 0.14.
On to `CCC(c1ccc(O)cc1)C(CC)c1cc(I)c(O)c(I)c1` (stereo not drawn), for which the RAC turned out to be 1.9.
As for `C[C@]12CC[C@@H]3c4cc(F)c(O)cc4CC[C@H]3[C@@H]1CC[C@@H]2O`, the RAC came out at 86.
`CCC(c1cc(I)c(O)c(I)c1)C(CC)c1cc(I)c(O)c(I)c1` (stereo not drawn) showed an RAC of 0.002.
Compound `C[C@]12CC[C@@H]3c4ccc(O)cc4CC[C@H]3[C@@H]1C[C@@H](Cl)[C@H]2O` registered an RAC of 9.2.
For the compound `CCC(c1ccc(O)c(Br)c1)C(CC)c1ccc(O)c(Br)c1` (stereo not drawn), the RAC came out at 2.6.
On to `COc1ccc2c(c1)CC[C@@H]1[C@@H]2CC[C@]2(C)C(=O)CC[C@@H]12`, for which the RAC worked out at 12.
`C[C@]12CC[C@@H]3c4ccc(O)cc4CC[C@H]3[C@@H]1C[C@@H](Br)[C@@H]2O` registered an RAC of 127.
Consider `CCC(c1ccc(O)c(I)c1)C(CC)c1ccc(O)c(I)c1` (stereo not drawn), for which the RAC was 3.2.
Consider `C[C@]12CC[C@@H]3c4ccc(O)cc4CC[C@H]3[C@@H]1C[C@@H](I)[C@@H]2O`, for which the RAC was determined as 100.
The compound `C[C@]12CC[C@@H]3c4ccc(O)c(F)c4CC[C@H]3[C@@H]1CC[C@@H]2O` showed an RAC of 128.
The compound `CCC(c1ccc(O)cc1)C(CC)c1ccc(O)c(F)c1` (stereo not drawn) registered an RAC of 205.
Compound `C[C@]12CC[C@@H]3c4ccc(O)cc4CC[C@H]3[C@@H]1C[C@@H](Br)[C@H]2O` showed an RAC of 4.8.
For the compound `CCC(c1cc(Br)c(O)c(Br)c1)C(CC)c1cc(Br)c(O)c(Br)c1` (stereo not drawn), the RAC was less than 0.17.
As for `CCC(c1ccc(O)c(F)c1)C(CC)c1ccc(O)c(F)c1` (stereo not drawn), the figure is 64.
Regarding `C[C@]12CC[C@@H]3c4ccc(O)cc4CC[C@H]3[C@@H]1C[C@@H](Cl)[C@@H]2O`, the RAC is 100.
`C[C@]12CC[C@@H]3c4cc(Br)c(O)cc4CC[C@H]3[C@@H]1CC[C@@H]2O` gave an RAC of 1.2.
For `C[C@]12CC[C@@H]3c4cc(I)c(O)cc4CC[C@H]3[C@@H]1CC[C@@H]2O`, the RAC was less than 0.1.
Take `C[C@]12CC[C@@H]3c4ccc(O)cc4CC[C@H]3[C@@H]1C[C@H](I)[C@@H]2O`: the RAC came out at 57.
The compound `C[C@]12CC[C@@H]3c4ccc(O)c(Br)c4CC[C@H]3[C@@H]1CC[C@@H]2O` gave an RAC of 10.
For the compound `COc1ccc2c(c1)CC[C@@H]1[C@@H]2CC[C@]2(C)C(=O)[C@H](Br)C[C@@H]12`, the RAC worked out at 3.5.
`CCC(c1ccc(O)c(Br)c1)C(CC)c1cc(Br)c(O)c(Br)c1` (stereo not drawn): the RAC was 0.72.
